Results from ChEMBL document CHEMBL5360655, “Design, Synthesis, and Biological Evaluation of Novel P2X7 Receptor Antagonists for the Treatment of Septic Acute Kidney Injury” (J Med Chem, 2023).
pIC50: −log10 of the molar value. The source made the active and inactive calls. The rule behind the calls is not given here.

Columns and labels:
[1] = target: T1, P2X purinoceptor 7 (Homo sapiens) (UniProt Q99572); test: Antagonist activity at human P2X7 receptor expressed in HEK293 cells assessed as inhibition of ATP-induced receptor pore formation at 10 uM by propidium iodide dye uptake based fluorescence analysis; format: cell-based
T1 sequence (whole entry): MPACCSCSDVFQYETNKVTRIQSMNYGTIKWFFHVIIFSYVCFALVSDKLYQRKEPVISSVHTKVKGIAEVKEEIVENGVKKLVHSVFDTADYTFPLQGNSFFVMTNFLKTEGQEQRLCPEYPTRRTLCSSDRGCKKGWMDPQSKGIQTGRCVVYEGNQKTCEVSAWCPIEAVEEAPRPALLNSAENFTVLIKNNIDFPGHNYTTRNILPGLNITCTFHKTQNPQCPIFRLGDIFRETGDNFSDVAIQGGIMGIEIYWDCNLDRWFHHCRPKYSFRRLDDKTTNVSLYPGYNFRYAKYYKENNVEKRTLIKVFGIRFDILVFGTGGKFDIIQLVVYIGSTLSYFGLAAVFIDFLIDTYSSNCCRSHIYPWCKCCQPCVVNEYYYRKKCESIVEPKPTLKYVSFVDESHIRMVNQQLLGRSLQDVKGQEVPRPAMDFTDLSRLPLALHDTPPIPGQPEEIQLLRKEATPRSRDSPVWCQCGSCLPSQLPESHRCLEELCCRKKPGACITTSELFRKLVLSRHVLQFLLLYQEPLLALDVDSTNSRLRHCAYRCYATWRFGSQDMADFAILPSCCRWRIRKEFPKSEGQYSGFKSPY

[2] = target: T2, P2X purinoceptor 7 (Mus musculus) (UniProt Q9Z1M0); test: Antagonist activity at mouse P2X7 receptor expressed in HEK293 cells assessed as inhibition of ATP-induced receptor pore formation at 10 uM by propidium iodide dye uptake based fluorescence analysis; format: cell-based
T2 sequence (whole entry): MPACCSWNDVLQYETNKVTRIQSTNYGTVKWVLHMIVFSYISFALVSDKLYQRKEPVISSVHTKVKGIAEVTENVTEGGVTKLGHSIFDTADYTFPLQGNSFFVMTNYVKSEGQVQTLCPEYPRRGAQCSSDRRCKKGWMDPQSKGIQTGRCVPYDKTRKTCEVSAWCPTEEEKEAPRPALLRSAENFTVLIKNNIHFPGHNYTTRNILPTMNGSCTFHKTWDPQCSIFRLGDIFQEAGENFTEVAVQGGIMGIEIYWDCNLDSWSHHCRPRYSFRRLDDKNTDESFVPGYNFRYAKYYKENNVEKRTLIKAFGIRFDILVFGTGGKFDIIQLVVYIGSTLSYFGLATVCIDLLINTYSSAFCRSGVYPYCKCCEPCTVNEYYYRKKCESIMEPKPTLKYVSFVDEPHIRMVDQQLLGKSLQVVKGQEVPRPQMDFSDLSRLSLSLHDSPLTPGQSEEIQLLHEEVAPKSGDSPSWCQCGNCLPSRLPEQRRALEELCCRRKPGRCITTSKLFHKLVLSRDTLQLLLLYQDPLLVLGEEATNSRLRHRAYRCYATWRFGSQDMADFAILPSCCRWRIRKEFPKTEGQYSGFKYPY

[3] = target: T1, P2X purinoceptor 7 (Homo sapiens); test: Antagonist activity at human P2X7 receptor expressed in HEK293 cells assessed as inhibition of ATP-induced receptor pore formation at 1 uM by propidium iodide dye uptake based fluorescence analysis; format: cell-based
[4] = target: T2, P2X purinoceptor 7 (Mus musculus); test: Antagonist activity at mouse P2X7 receptor expressed in HEK293 cells assessed as inhibition of ATP-induced receptor pore formation at 1 uM by propidium iodide dye uptake based fluorescence analysis; format: cell-based
[5] = target: T1, P2X purinoceptor 7 (Homo sapiens); test: Antagonist activity at human P2X7 receptor expressed in HEK293 cells assessed as inhibition of ATP-induced receptor pore formation at 200 nM by propidium iodide dye uptake based fluorescence analysis; format: cell-based
[6] = target: T2, P2X purinoceptor 7 (Mus musculus); test: Antagonist activity at mouse P2X7 receptor expressed in HEK293 cells assessed as inhibition of ATP-induced receptor pore formation at 200 nM by propidium iodide dye uptake based fluorescence analysis; format: cell-based
P2X purinoceptor 7 [7] = target: T3, P2X purinoceptor 7 (Homo sapiens, UniProt Q99572); test: Antagonist activity at human P2X7 receptor expressed in HEK293 cells assessed as inhibition of ATP-induced receptor pore formation by propidium iodide dye uptake based fluorescence analysis; format: cell-based
T3 sequence (Q99572 whole entry): T1 sequence (whole entry)

P2X purinoceptor 7 [8] = target: T4, P2X purinoceptor 7 (Mus musculus, UniProt Q9Z1M0); test: Antagonist activity at mouse P2X7 receptor expressed in HEK293 cells assessed as inhibition of ATP-induced receptor pore formation by propidium iodide dye uptake based fluorescence analysis; format: cell-based
T4 sequence (Q9Z1M0 whole entry): T2 sequence (whole entry)

[9] = Intrinsic clearance in human liver microsomes; format: ADME, Microsome; details: read-out: CLH
[10] = Half life in human liver microsomes; format: ADME, Microsome
[11] = Intrinsic clearance in mouse liver microsomes; format: ADME, Microsome; details: read-out: CLH
[12] = Half life in mouse liver microsomes; format: ADME, Microsome

| Structure (SMILES) | inhibition ([3]; filed as antagonist) [%] | inhibition [5] | inhibition [6] | inhibition [3] | inhibition ([4]; filed as antagonist) [%] | pIC50 (P2X purinoceptor 7 [8]) | further results |
| --- | --- | --- | --- | --- | --- | --- | --- |
| Cc1cccc(Cl)c1C(=O)NCc1cn(-c2cc(Cl)ccn2)nn1 |  |  |  |  |  |  | inhibition [1]: inactive; inhibition [2]: 34.4% |
| Nc1cccc(-c2ncc(C(=O)NCc3cn(-c4cc(Cl)ccn4)nn3)s2)c1 | 57.3 | 9.8% | 2.9% |  |  |  | inhibition [4]: 35.2%; pIC50 (P2X purinoceptor 7 [7]): 6.18 |
| CS(=O)(=O)Nc1ccc(-c2ccc(Cl)c(C(=O)NCc3cn(-c4cc(Cl)ccn4)nn3)c2)cc1 |  | inactive | inactive | inactive | 45.1 |  |  |
| CS(=O)(=O)c1cccc(-c2ccc(Cl)c(C(=O)NCc3cn(-c4cc(Cl)ccn4)nn3)c2)c1 | 41.9 | inactive | inactive |  | 49.6 |  | inhibition ([1]; filed as antagonist): > 50%; inhibition ([2]; filed as antagonist): > 50% |
| CS(=O)(=O)c1ccc(-c2csc(C(=O)NCc3cn(-c4cc(Cl)ccn4)nn3)n2)cc1 | 40.9 | 5% |  |  | 74 | 6.78 | inhibition ([6]; filed as antagonist): 55.2% |
| CS(=O)(=O)c1cccc(-c2ncc(C(=O)NCc3cn(-c4cc(Cl)ccn4)nn3)s2)c1 |  | inactive | inactive | 36.7% |  |  | inhibition [4]: 25.8% |
| O=C(NCc1cn(-c2cc(Cl)ccn2)nn1)c1cccc(C(F)(F)F)c1Cl |  |  |  |  |  |  | inhibition ([1]; filed as antagonist): 46.5%; inhibition [2]: 13.2% |
| O=C(NCc1cn(-c2cc(Cl)ccn2)nn1)c1cc(Br)ccc1Cl |  |  |  |  |  |  | inhibition ([1]; filed as antagonist): 59.3%; inhibition [2]: 10% |
| CS(=O)(=O)Nc1ccc(-c2ncc(C(=O)NCc3cn(-c4cc(Cl)ccn4)nn3)s2)cc1 | 52.3 | 26.6% |  |  | 89.8 | 7.03 | inhibition ([6]; filed as antagonist): 71.6%; pIC50 (P2X purinoceptor 7 [7]): 6.47; CLint scaled [9]: < 12 mL/min/kg; half-life [10]: > 2 h; CLint scaled [11]: < 12 mL/min/kg; half-life [12]: > 2 h |
| Cc1cc(F)ccc1-c1ccc(Cl)c(C(=O)NCc2cn(-c3cc(Cl)ccn3)nn2)c1 |  | 13.4% | 17.8% | 23.3% |  |  | inhibition [4]: 9.2% |
| O=C(NCc1cn(-c2cc(Cl)ccn2)nn1)c1cnc(-c2cccc(NS(=O)(=O)N3CCOCC3)c2)s1 | 78.8 |  |  |  | 112 | 7.23 | inhibition ([5]; filed as antagonist): 46.5%; inhibition ([6]; filed as antagonist): 82.4%; pIC50 (P2X purinoceptor 7 [7]): 6.36; CLint scaled [9]: 24.1 mL/min/kg; half-life [10]: 1.2 h; CLint scaled [11]: 215 mL/min/kg; half-life [12]: 0.423 h |
| O=C(NCc1cn(-c2cc(Cl)ccn2)nn1)c1c(Cl)cccc1Br |  |  |  |  |  |  | inhibition [1]: 23.1%; inhibition ([2]; filed as antagonist): 62.3% |
| O=C(NCc1cn(-c2cc(Cl)ccn2)nn1)c1ccc(C(F)(F)F)c(Br)c1 |  |  |  |  |  |  | inhibition ([1]; filed as antagonist): 53.5%; inhibition [2]: 22.5% |
| O=C(NCc1cn(-c2cc(Cl)ccn2)nn1)c1ccc(C(F)(F)F)cc1Cl |  |  |  |  |  |  | inhibition ([1]; filed as antagonist): 45.1%; inhibition [2]: 39.3% |
| CS(=O)(=O)Nc1cccc(-c2ncc(C(=O)NCc3cn(-c4cc(Cl)ccn4)nn3)s2)c1 |  | inactive | inactive | 6.8% |  |  | inhibition [4]: 17.3% |
| O=C(NCc1cn(-c2cc(Cl)ccn2)nn1)c1ccc(Cl)cc1 |  |  |  |  |  |  | inhibition [1]: inactive; inhibition ([2]; filed as antagonist): 62.8% |
| O=C(NCc1cn(-c2cc(Cl)ccn2)nn1)c1ccccc1Cl |  |  |  |  |  |  | inhibition [1]: inactive; inhibition [2]: inactive |

| Structure (SMILES) | inhibition ([3]; filed as antagonist) [%] | inhibition [5] | inhibition [6] | inhibition [3] | inhibition ([4]; filed as antagonist) [%] | pIC50 (P2X purinoceptor 7 [8]) | further results |
| --- | --- | --- | --- | --- | --- | --- | --- |
| COc1ccc(-c2ccc(Cl)c(C(=O)NCc3cn(-c4cc(Cl)ccn4)nn3)c2)cc1OC | 59.2 | 35.7% | inactive |  | 51 | 5.75 | pIC50 (P2X purinoceptor 7 [7]): 6.55; CLint scaled [9]: 17.8 mL/min/kg; half-life [10]: 1.63 h; CLint scaled [11]: 216 mL/min/kg; half-life [12]: 0.421 h |
| O=C(NCc1cn(-c2cc(Cl)ccn2)nn1)c1cc(-c2cccc3ncccc23)ccc1Cl |  | 13.6% |  | 33.1% | 72.4 | 6.86 | inhibition ([1]; filed as antagonist): > 50%; inhibition ([2]; filed as antagonist): > 50%; inhibition ([6]; filed as antagonist): 66.7% |
| CS(=O)(=O)c1ccc(-c2nc(C(=O)NCc3cn(-c4cccc(Br)n4)nn3)cs2)cc1 | 53.8 | 10.1% | inactive |  |  |  | inhibition [4]: inactive; pIC50 (P2X purinoceptor 7 [7]): 6.15 |
| O=C(NCc1cn(-c2cc(Cl)ccn2)nn1)c1cc(-c2cccc3[nH]ccc23)ccc1Cl |  | 15.6% | inactive | 34.1% |  |  | inhibition [4]: 10.2% |
| O=C(NCc1cn(-c2cc(Cl)ccn2)nn1)c1cc(-c2cccc3cc[nH]c23)ccc1Cl |  | inactive | 25.6% | inactive | 62.5 | 6.45 |  |
| O=C(NCc1cn(-c2cc(Cl)ccn2)nn1)c1cnc(-c2ccc(NS(=O)(=O)N3CCOCC3)cc2)s1 | 86.1 |  |  |  | 78.2 | 6.98 | inhibition ([5]; filed as antagonist): 55.2%; inhibition ([6]; filed as antagonist): 54.3%; pIC50 (P2X purinoceptor 7 [7]): 7.00; CLint scaled [9]: 15.3 mL/min/kg; half-life [10]: 1.89 h; CLint scaled [11]: 154 mL/min/kg; half-life [12]: 0.589 h |
| CC(C)S(=O)(=O)c1ccc(-c2ncc(C(=O)NCc3cn(-c4cc(Cl)ccn4)nn3)s2)cc1 | 56.3 | 22.1% |  |  | 92.6 | 6.46 | inhibition ([6]; filed as antagonist): 67.6%; pIC50 (P2X purinoceptor 7 [7]): 6.18; CLint scaled [9]: 40.4 mL/min/kg; half-life [10]: 0.717 h; CLint scaled [11]: 66.2 mL/min/kg; half-life [12]: 1.38 h |
| Nc1cccc(-c2ccc(Cl)c(C(=O)NCc3cn(-c4cc(Cl)ccn4)nn3)c2)c1 |  | 24.4% | 19.1% | 21.9% |  |  | inhibition [4]: inactive |
| CS(=O)(=O)c1ccc(-c2nc(C(=O)NCc3cn(-c4ccc(Br)cn4)nn3)cs2)cc1 | 51.6 | 11% | inactive |  |  |  | inhibition [4]: inactive; pIC50 (P2X purinoceptor 7 [7]): 6.09 |
| CS(=O)(=O)c1ccc(-c2ncc(C(=O)NCc3cn(-c4cccc(Br)n4)nn3)s2)cc1 |  | inactive | inactive | 6.2% | 52 | 6.20 |  |
| CS(=O)(=O)c1ccc(-c2ccc(Cl)c(C(=O)NCc3cn(-c4cc(Cl)ccn4)nn3)c2)cc1 | 40 | 22.9% |  |  | 71 | 7.00 | inhibition ([1]; filed as antagonist): > 50%; inhibition ([2]; filed as antagonist): > 50%; inhibition ([6]; filed as antagonist): 66% |
| CS(=O)(=O)c1ccc(-c2ncc(C(=O)NCc3cn(-c4ccc(Br)cn4)nn3)s2)cc1 |  | 12.4% | inactive | 33.3% |  |  | inhibition [4]: inactive |
| CS(=O)(=O)c1ccc(-c2nc(C(=O)NCc3cn(-c4cc(F)ccn4)nn3)cs2)cc1 |  | inactive | 23.3% | 23.2% | 41.9 |  |  |
| Nc1ccc(-c2ncc(C(=O)NCc3cn(-c4cc(Cl)ccn4)nn3)s2)cc1 |  |  |  | 39.2% | 60.7 | 6.73 | inhibition ([5]; filed as antagonist): 46.2%; inhibition ([6]; filed as antagonist): 51.7% |
| CS(=O)(=O)c1ccc(-c2ncc(C(=O)NCc3cn(-c4cc(F)ccn4)nn3)s2)cc1 | 45.1 | 37.8% |  |  | 61.8 | 6.71 | inhibition ([6]; filed as antagonist): 68.4% |
| CC(C)Cc1ccc(-c2ccc(Cl)c(C(=O)NCc3cn(-c4cc(Cl)ccn4)nn3)c2)cc1 |  | 20.7% | inactive | 39.2% | 59.3 | 6.39 |  |
